Tested on: chorda tympani nerve of wild-type B6 mice
Test: Chorda tympani whole-nerve responses to lingual taste stimuli, wild-type B6 mice
Assay type: in vivo
Settings: lingual application (FIG. 6B, 7)
Method: Mouse model for sweet property and bitter-masking assay. Recordings of chorda tympani (CT) whole-nerve responses: All protocols involving animals were approved by the Institutional Animal Care and Use Committees at the Monell Center prior to the experiments. The study was performed with mice from two strains: C57BL/6J inbred strain (B6; Jackson Laboratory, Bar Harbor, Me.) bearing the wild-type Tas1r3 allele was used as the control, and the C57BL/6J-Tas1r3^tm1Rjm “gene-knockout” strain (T1R3-KO) lacking the entire T1R3 coding region and devoid of T1R3 protein ([…]., et al., Science, 301: 850-853 (2003)). Afferent signals from taste cells are relayed to the brain via three major gustatory nerves: the chorda tympani, glossopharyngeal, and greater superficial petrosal. […] Neural responses resulting from chemical stimulations of the tongue were fed into an amplifier (Grass Instruments, West Warwick, R.I.) and monitored on an oscilloscope and an audio monitor. Whole-nerve responses were integrated with a time constant of 1.0 s and recorded using a computer for later analysis using a PowerLab system (PowerLab/sp4; AD Instruments, Colorado Springs, Colo.). […] To analyze nerve responses to each stimulus, the magnitudes of integrated responses at 5, 10, 15, 20, and 25 s after stimulus onset were measured and averaged. […]

With `OC[C@H]1O[C@@H](O[C@@H]2[C@@H](O)[C@H](O)[C@@H](CO)O[C@H]2O)[C@H](O)[C@@H](O)[C@@H]1O` [Sophorose, 2-O-β-D-glucopyranosyl-β-D glucopyranose] the chorda tympani responses was “present”.

Source: US10799590B2, “Compositions containing a bitter tastant and at least one sophorolipid, and methods of reducing bitter taste attributed to a bitter tastant in an edible composition” (The United States of America, as Represented by the …, priority 2015, dated 2020)
